Data taken from ChEMBL document CHEMBL3286108, “Novel arylsulfonamide derivatives with 5-HT₆/5-HT₇ receptor antagonism targeting behavioral and psychological symptoms of dementia” (J Med Chem, 2014).
The source made the active and inactive calls. The rule behind the calls is not given here.

Experiments:
[1] = biological target: T1, 5-hydroxytryptamine receptor 7 (Homo sapiens, UniProt P34969); test: biochemical; assay type: cell-based, CHO-K1
[2] = biological target: T2, 5-hydroxytryptamine receptor 2A (Homo sapiens, UniProt P28223); test: biochemical; assay type: cell-based, CHO-K1
[3] = biological target: T3, Muscarinic acetylcholine receptor M1 (Homo sapiens) (UniProt P11229); test: Displacement of [3H]pirenzepine from human recombinant M1 receptor expressed in CHO cells at 1 uM; assay type: cell-based
T3 sequence (whole entry): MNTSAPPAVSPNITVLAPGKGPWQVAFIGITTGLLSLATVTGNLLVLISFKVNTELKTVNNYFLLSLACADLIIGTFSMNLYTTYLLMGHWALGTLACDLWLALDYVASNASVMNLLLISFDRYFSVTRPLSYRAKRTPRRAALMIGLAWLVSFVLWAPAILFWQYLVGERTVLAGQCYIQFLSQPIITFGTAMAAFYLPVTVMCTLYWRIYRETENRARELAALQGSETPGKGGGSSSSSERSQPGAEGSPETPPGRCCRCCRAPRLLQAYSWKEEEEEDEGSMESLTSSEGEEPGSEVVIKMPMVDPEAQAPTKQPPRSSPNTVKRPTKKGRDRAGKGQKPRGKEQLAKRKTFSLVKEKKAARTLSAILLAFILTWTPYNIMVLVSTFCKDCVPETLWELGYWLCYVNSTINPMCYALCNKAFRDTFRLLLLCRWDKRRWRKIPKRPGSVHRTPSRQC

[4] = biological target: T4, 5-hydroxytryptamine receptor 6 (Homo sapiens, UniProt P50406); test: Antagonist activity at human recombinant 5-HT6 receptor expressed in CHO-K1 cells assessed as inhibition of serotonin-induced response treated 15 to 30 mins before agonist challenge by luminescence analysis; assay type: cell-based
[5] = biological target: T1, 5-hydroxytryptamine receptor 7; test: Antagonist activity at human 5-HT7 receptor expressed in CHO-K1 cells assessed as inhibition of serotonin-induced cAMP accumulation after 60 mins by TR-FRET immunoassay; assay type: functional, cell-based
[6] = biological target: T2, 5-hydroxytryptamine receptor 2A; test: Antagonist activity at human recombinant 5-HT2A receptor expressed in CHO-K1 cells assessed as inhibition of alpha-methyl serotonin-induced response treated 15 to 30 mins before agonist challenge by luminescence analysis; assay type: cell-based
[7] = biological target: T4, 5-hydroxytryptamine receptor 6; test: Agonist activity at human recombinant 5-HT6 receptor expressed in CHO-K1 cells by luminescence analysis; assay type: cell-based
[8] = biological target: T1, 5-hydroxytryptamine receptor 7; test: Agonist activity at human 5-HT7 receptor expressed in CHO-K1 cells assessed as cAMP accumulation after 60 mins by TR-FRET immunoassay; assay type: functional, cell-based
[9] = biological target: T2, 5-hydroxytryptamine receptor 2A; test: Agonist activity at human recombinant 5-HT2A receptor expressed in CHO-K1 cells by luminescence analysis; assay type: cell-based
D(2) dopamine receptor [10] = biological target: T5, D(2) dopamine receptor (Homo sapiens, UniProt P14416); test: Agonist activity at human recombinant D2 receptor expressed in CHO-K1 cells by luminescence analysis; assay type: cell-based
[11] = biological target: hERG (KCNH2) potassium channel (Homo sapiens, UniProt Q12809); test: in vitro; details: CHO cells expressing human cloned ERG
[12] = biological target: T4, 5-hydroxytryptamine receptor 6; test: biochemical
D(2) dopamine receptor [13] = biological target: T5, D(2) dopamine receptor; test: biochemical

T1 sequence (P34969 whole entry): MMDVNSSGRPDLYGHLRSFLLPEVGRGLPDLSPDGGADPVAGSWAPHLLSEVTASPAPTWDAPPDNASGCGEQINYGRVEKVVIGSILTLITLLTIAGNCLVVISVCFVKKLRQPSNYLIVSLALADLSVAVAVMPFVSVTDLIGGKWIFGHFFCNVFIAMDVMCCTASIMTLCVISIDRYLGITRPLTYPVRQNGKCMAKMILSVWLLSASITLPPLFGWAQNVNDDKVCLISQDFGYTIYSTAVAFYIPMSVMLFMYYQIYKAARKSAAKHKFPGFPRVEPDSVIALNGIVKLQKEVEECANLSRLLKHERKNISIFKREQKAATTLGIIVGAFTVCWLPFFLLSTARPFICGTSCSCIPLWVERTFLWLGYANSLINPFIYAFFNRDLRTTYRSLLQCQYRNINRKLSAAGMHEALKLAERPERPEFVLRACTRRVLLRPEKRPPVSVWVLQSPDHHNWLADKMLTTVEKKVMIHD
T4 sequence (P50406 whole entry): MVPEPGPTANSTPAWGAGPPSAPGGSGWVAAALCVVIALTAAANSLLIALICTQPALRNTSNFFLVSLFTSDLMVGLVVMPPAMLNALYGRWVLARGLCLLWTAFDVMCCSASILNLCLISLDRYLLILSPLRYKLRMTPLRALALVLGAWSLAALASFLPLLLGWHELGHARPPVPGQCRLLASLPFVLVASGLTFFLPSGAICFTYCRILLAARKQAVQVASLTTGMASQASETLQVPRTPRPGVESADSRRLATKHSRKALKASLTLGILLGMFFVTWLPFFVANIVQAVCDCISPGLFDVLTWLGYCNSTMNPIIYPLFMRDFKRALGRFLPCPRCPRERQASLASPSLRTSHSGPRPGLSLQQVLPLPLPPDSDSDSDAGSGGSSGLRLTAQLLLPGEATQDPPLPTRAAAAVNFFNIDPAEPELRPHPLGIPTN
T5 sequence (P14416 whole entry): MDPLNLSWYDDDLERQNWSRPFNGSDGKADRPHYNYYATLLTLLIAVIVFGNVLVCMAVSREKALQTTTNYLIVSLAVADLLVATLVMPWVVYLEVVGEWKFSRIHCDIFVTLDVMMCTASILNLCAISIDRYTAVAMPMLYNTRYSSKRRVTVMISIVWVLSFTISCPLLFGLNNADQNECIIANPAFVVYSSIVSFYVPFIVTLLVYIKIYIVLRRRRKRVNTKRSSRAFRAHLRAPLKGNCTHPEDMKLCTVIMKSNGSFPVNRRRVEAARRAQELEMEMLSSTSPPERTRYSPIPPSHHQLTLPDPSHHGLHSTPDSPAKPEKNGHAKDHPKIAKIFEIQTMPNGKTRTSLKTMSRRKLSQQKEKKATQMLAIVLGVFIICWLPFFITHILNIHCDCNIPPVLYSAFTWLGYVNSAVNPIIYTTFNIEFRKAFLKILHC
Chain of hERG (KCNH2) potassium channel (Q12809 whole entry): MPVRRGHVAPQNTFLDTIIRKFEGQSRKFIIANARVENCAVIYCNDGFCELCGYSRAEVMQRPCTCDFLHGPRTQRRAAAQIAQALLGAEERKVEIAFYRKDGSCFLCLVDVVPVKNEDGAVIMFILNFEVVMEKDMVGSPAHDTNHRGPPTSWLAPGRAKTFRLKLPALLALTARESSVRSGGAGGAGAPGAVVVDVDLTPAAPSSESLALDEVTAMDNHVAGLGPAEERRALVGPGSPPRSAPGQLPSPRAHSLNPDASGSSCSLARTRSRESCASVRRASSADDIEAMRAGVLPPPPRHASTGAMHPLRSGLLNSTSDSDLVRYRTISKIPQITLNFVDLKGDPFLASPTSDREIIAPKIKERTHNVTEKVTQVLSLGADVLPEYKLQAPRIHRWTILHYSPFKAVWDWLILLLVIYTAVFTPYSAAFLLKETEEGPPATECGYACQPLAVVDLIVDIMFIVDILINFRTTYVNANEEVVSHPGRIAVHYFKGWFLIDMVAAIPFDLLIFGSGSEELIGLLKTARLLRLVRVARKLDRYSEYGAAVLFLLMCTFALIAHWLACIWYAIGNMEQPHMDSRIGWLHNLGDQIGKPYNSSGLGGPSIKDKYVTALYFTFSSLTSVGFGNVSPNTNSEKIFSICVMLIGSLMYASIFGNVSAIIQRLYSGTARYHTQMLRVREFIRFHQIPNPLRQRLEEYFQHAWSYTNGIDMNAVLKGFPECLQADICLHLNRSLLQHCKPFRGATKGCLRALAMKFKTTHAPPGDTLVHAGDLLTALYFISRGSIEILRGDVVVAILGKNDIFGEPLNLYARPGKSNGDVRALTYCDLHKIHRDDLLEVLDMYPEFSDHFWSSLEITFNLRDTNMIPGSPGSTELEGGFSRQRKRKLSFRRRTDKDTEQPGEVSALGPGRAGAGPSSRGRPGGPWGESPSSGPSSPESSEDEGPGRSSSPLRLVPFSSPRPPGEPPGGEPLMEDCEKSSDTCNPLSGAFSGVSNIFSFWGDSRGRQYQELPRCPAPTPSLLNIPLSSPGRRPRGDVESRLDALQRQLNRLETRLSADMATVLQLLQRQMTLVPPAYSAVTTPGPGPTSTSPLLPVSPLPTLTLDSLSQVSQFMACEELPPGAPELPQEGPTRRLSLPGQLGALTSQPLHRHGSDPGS
T2 sequence (P28223 whole entry): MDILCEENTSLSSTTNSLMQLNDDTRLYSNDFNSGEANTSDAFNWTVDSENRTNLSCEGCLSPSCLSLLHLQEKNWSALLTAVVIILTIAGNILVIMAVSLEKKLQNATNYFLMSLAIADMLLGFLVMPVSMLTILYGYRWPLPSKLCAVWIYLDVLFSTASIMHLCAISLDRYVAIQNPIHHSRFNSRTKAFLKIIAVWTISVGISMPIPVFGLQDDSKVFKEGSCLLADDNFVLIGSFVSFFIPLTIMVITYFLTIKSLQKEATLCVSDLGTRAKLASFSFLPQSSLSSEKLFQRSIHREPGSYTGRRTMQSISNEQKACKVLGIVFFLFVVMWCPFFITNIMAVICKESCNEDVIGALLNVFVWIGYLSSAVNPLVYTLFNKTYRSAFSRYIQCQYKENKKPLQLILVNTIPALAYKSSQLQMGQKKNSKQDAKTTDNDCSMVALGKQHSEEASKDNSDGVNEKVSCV

| Structure (SMILES) | Ki [1] [nM] | Ki [2] [nM] | inhibition [3] [%] | Kb [4] [nM] | Kb [5] [nM] | Kb [6] [nM] | Activity [7] | Activity [8] | Activity [9] | Activity (D(2) dopamine receptor [10]) | inhibition at 1 µM [11] [%] | Ki [12] [nM] | Ki (D(2) dopamine receptor [13]) [nM] |
| --- | --- | --- | --- | --- | --- | --- | --- | --- | --- | --- | --- | --- | --- |
| O=S(=O)(NCCCN1CCC(c2noc3cc(F)ccc23)CC1)c1ccc(F)c(Cl)c1 | 0.9 | 1.5 | -8 | 7.4 | 0.8 | 7 | inactive | inactive | inactive | inactive | 32 | 1.6 | 3.7 |
| O=S(=O)(NCCCCN1CCN(c2nsc3ccccc23)CC1)c1ccc2ccccc2c1 | 1.8 | 1.5 | -5 | 7.6 | 44 | 110 | inactive | inactive | inactive | inactive | 14 | 5 | 0.9 |
| Cc1cccc(S(=O)(=O)NCCCN2CCC(c3noc4cc(F)ccc34)CC2)c1 | 0.6 | 3.7 | 1 | 2.5 | 0.5 | 15 | inactive | inactive | inactive | inactive | 52 | 13 | 16 |
| O=S(=O)(NCCCCN1CCC(c2noc3cc(F)ccc23)CC1)c1ccc2cc(Cl)ccc2c1 | 3.2 | 0.6 |  | 8.3 | 1 | 6.5 | inactive | inactive | inactive | inactive |  | 2.4 | 1 |
| O=S(=O)(NCCCCN1CCC(c2noc3cc(F)ccc23)CC1)c1cc2ccc(Cl)cc2s1 | 1.3 | 0.8 | 23 | 21 | 2.8 | 55 | inactive | inactive | inactive | inactive | 18 | 3.3 | 1.2 |
| O=S(=O)(NCCCN1CCC(c2noc3cc(F)ccc23)CC1)c1ccc(Cl)c(Cl)c1 | 1.2 | 2.2 | -3 | 12 | 2.1 | 23 | inactive | inactive | inactive | inactive | 69 | 7.1 | 14 |
| O=S(=O)(NCCCCN1CCC(c2noc3cc(F)ccc23)CC1)c1ccc2ccccc2c1 | 1.4 | 1.7 | 0 | 3.8 | 8.8 | 14 | inactive | inactive | inactive | inactive | 30 | 2.4 | 1.1 |
| O=S(=O)(NCCCCN1CCC(c2noc3cc(F)ccc23)CC1)c1cccc2ccccc12 | 0.8 | 0.6 | 0 | 17 | 3 | 76 | inactive | inactive | inactive | inactive | 24 | 8.8 | 3 |
| O=S(=O)(NCCCCN1CCN(c2noc3ccccc23)CC1)c1ccc2ccccc2c1 | 0.8 | 0.7 | -3 | 11 | 9.2 | 11 | inactive | inactive | inactive | inactive | 0 | 6.2 | 15 |
